Source: US20230265116A1, “DEGRADATION OF (EGFR) BY CONJUGATION OF EGFR INHIBITORS WITH E3 LIGASE LIGAND AND METHODS OF USE” (BEIGENE, LTD., priority 2020, published 2023)

Tests used:
[1] = target: T1, EGFR L858R/T790M/C797S (BaF3-LTC cells) (Homo sapiens, UniProt P00533, C797S/L858R/T790M); test: EGFR degradation HTRF assay, BaF3-LTC cells; assay type: cell-based; settings: BaF3-LTC cells; for DC50: EGFR degradation, IC50 (DC50) from curve fit, read-out: DC50(nM) BaF3-LTC; for Dmax: maximum percentage of inhibition (degradation), read-out: Dmax (%) BaF3-LTC
T1 construct: expressed in transfected cells; host or cells: BaF3
Method in brief: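 Cells treated 16 h at 37 °C, 5% CO2 in medium with 0.2% DMSO; top final concentration 10 uM, 5-fold dilution, 8 doses. Lysates read by HTRF (665/620 nm); degradation % versus DMSO high control, DC50 from four-parameter fit, Dmax as maximal degradation.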

[2] = tested on: EGFR Del19/T790M/C797S (H1975-clone #28); test: EGFR degradation HTRF assay, H1975-clone #28 DTC cells; assay type: cell-based; settings: H1975 # 28 DTC cells; for DC50: EGFR degradation, IC50 (DC50) from curve fit, read-out: DC50(nM) H1975 # 28 DTC; for Dmax (%) H1975 # 28 DTC: maximum percentage of inhibition (degradation)
Method in brief: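 The test uses H1975 clonal lines carrying lentiviral mutant EGFR with endogenous copies removed, treated 16h at 37° C., 5% CO2. EGFR left in the lysate is quantified by HTRF, and DC50 is derived from an 8-dose curve starting at 10 uM final.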

T1 sequence (P00533 25-1210 T790M/C797S/L858R): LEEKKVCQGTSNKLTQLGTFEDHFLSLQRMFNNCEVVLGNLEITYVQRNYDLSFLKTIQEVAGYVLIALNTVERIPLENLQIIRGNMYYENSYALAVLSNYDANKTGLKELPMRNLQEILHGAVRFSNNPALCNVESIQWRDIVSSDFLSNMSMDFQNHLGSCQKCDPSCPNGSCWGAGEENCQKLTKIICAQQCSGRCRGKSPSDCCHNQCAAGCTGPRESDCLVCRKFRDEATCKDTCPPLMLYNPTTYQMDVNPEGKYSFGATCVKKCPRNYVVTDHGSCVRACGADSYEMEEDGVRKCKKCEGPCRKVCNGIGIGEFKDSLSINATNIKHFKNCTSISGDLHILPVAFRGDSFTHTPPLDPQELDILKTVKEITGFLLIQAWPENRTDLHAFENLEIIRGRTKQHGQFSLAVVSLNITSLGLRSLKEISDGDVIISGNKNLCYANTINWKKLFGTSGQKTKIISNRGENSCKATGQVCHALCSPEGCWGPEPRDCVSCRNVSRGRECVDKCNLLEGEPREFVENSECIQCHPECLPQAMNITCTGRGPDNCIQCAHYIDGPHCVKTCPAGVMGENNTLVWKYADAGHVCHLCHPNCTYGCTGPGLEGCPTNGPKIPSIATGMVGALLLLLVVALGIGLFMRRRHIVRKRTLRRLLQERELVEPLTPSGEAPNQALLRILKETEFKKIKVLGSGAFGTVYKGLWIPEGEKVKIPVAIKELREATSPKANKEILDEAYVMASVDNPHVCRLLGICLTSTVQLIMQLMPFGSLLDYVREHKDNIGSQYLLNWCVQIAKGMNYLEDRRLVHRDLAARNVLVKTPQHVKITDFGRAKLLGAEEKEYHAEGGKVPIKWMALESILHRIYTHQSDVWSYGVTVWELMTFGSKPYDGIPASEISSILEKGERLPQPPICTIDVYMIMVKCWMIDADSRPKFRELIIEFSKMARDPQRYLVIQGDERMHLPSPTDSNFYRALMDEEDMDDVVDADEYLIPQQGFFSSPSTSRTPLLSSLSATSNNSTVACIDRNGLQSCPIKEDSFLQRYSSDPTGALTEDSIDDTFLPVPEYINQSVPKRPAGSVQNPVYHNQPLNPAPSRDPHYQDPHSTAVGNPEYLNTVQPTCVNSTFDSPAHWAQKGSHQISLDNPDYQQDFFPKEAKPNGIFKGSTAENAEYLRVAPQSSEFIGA

SMILES | DC50 [1] | Dmax [1] | DC50 [2] | Dmax (%) H1975 # 28 DTC [2]
CCOc1ccc2c(P(C)(C)=O)c(Nc3nc(Nc4cc(CC)c(N5CCC(N6CCN(C(=O)[C@@H]7CCN(c8cc(F)c([C@H]9CCC(=O)NC9=O)c(F)c8)C7)CC6)CC5)cc4OC)ncc3Br)ccc2n1 [Example 677, (R)-3-(4-((R)-3-(4-(1-(4-((5-bromo-4-((5-(dimethylphosphoryl)-2-ethoxyquinolin-6-yl)amino)pyrimidin-2-yl)amino)-2-ethyl-5-methoxyphenyl)piperidin-4-yl)piperazine-1-carbonyl)pyrrolidin-1-yl)-2,6-difluorophenyl)piperidine-2,6-dione] | 38 nM | 94.3% | 3.83 nM | 77.05%
CCOc1cc(N2CCC(N3CCN(C(=O)[C@@H]4CCN(c5cc(F)c([C@H]6CCC(=O)NC6=O)c(F)c5)C4)CC3)CC2)c(CC)cc1Nc1ncc(Br)c(Nc2cc(F)c3ncccc3c2P(C)(C)=O)n1 [Example 678, (R)-3-(4-((R)-3-(4-(1-(4-((5-bromo-4-((5-(dimethylphosphoryl)-8-fluoroquinolin-6-yl)amino)pyrimidin-2-yl)amino)-5-ethoxy-2-ethylphenyl)piperidin-4-yl)piperazine-1-carbonyl)pyrrolidin-1-yl)-2,6-difluorophenyl)piperidine-2,6-dione] | 5.8 nM | 94.9% | 1.39 nM | 81.53%
CCOc1cc(N2CCC(N3CCN(CCc4cc(F)c([C@H]5CCC(=O)NC5=O)c(F)c4)CC3)CC2)c(CC)cc1Nc1ncc(Br)c(Nc2ccc3c(=O)n(CC)ncc3c2P(C)(C)=O)n1 [Example 679, (R)-3-(4-(2-(4-(1-(4-((5-bromo-4-((5-(dimethylphosphoryl)-2-ethyl-1-oxo-1,2-dihydrophthalazin-6-yl)amino)pyrimidin-2-yl)amino)-5-ethoxy-2-ethylphenyl)piperidin-4-yl)piperazin-1-yl)ethyl)-2,6-difluorophenyl)piperidine-2,6-dione] | 22.6 nM | 93.3% | 1.75 nM | 83.46%
CCc1cc(Nc2ncc(Br)c(Nc3ccc4nc(C(C)(C)O)ccc4c3P(C)(C)=O)n2)c(OC)cc1N1CCC(N2CCN(C(=O)[C@@H]3CCN(c4cc(F)c(C5CCC(=O)NC5=O)c(F)c4)C3)CC2)CC1 (stereo partly drawn) [Example 680, 3-(4-((R)-3-(4-(1-(4-((5-bromo-4-((5-(dimethylphosphoryl)-2-(2-hydroxypropan-2-yl)quinolin-6-yl)amino)pyrimidin-2-yl)amino)-2-ethyl-5-methoxyphenyl)piperidin-4-yl)piperazine-1-carbonyl)pyrrolidin-1-yl)-2,6-difluorophenyl)piperidine-2,6-dione] | 4.96 nM | 95.1% | 0.763 nM | 85.2%
CCc1cc(Nc2ncc(Br)c(Nc3ccc4nc(C)ccc4c3P(C)(C)=O)n2)c(OC)cc1N1CCC(N2CCN(C(=O)[C@H]3CC[C@@H](Oc4cc(F)c(C5CCC(=O)NC5=O)c(F)c4)CC3)CC2)CC1 (some centres unmarked) [Example 681, 3-(4-(((1s,4s)-4-(4-(1-(4-((5-bromo-4-((5-(dimethylphosphoryl)-2-methylquinolin-6-yl)amino)pyrimidin-2-yl)amino)-2-ethyl-5-methoxyphenyl)piperidin-4-yl)piperazine-1-carbonyl)cyclohexyl)oxy)-2,6-difluorophenyl)piperidine-2,6-dione] | 4.65 nM | 96% | 1.37 nM | 77.05%
CCc1cc(Nc2ncc(Br)c(Nc3ccc4nc(C#N)ccc4c3P(C)(C)=O)n2)c(OC)cc1N1CCC(N2CCN(CCc3cc(F)c([C@H]4CCC(=O)NC4=O)c(F)c3)CC2)CC1 [Example 682, (R)-6-((5-bromo-2-((4-(4-(4-(4-(2,6-dioxopiperidin-3-yl)-3,5-difluorophenethyl)piperazin-1-yl)piperidin-1-yl)-5-ethyl-2-methoxyphenyl)amino)pyrimidin-4-yl)amino)-5-(dimethylphosphoryl)quinoline-2-carbonitrile] | 6.79 nM | 95% | 0.91 nM | 87.08%
CCc1cc(Nc2ncc(Br)c(Nc3ccc4nc(C)ccc4c3P(C)(C)=O)n2)c(OC)cc1N1CCC(N2CCN(CCOc3cccc4c3n(C)c(=O)n4C3CCC(=O)NC3=O)CC2)CC1 (centres unmarked) [Example 683, 3-(4-(2-(4-(1-(4-((5-bromo-4-((5-(dimethylphosphoryl)-2-methylquinolin-6-yl)amino)pyrimidin-2-yl)amino)-2-ethyl-5-methoxyphenyl)piperidin-4-yl)piperazin-1-yl)ethoxy)-3-methyl-2-oxo-2,3-dihydro-1H-benzo[d]imidazol-1-yl)piperidine-2,6-dione] | 1.11 nM | 95.9% | 0.595 nM | 75.35%
CCc1cc(Nc2ncc(Br)c(Nc3ccc4c(C)nccc4c3P(C)(C)=O)n2)c(OC)cc1N1CCC(N2CCN(CCc3cc(F)c([C@H]4CCC(=O)NC4=O)c(F)c3)CC2)CC1 [Example 684, (R)-3-(4-(2-(4-(1-(4-((5-bromo-4-((5-(dimethylphosphoryl)-1-methylisoquinolin-6-yl)amino)pyrimidin-2-yl)amino)-2-ethyl-5-methoxyphenyl)piperidin-4-yl)piperazin-1-yl)ethyl)-2,6-difluorophenyl)piperidine-2,6-dione] | 12.4 nM | 91.4% | 1.06 nM | 88.35%
CCc1cc(Nc2ncc(Br)c(Nc3ccc4nc(C)sc4c3P(C)(C)=O)n2)c(OC)cc1N1CCC(N2CCN(C(=O)[C@@H]3CCN(c4cc(F)c([C@H]5CCC(=O)NC5=O)c(F)c4)C3)CC2)CC1 [Example 685, (R)-3-(4-((R)-3-(4-(1-(4-((5-bromo-4-((7-(dimethylphosphoryl)-2-methylbenzo[d]thiazol-6-yl)amino)pyrimidin-2-yl)amino)-2-ethyl-5-methoxyphenyl)piperidin-4-yl)piperazine-1-carbonyl)pyrrolidin-1-yl)-2,6-difluorophenyl)piperidine-2,6-dione] | 5.29 nM | 95% | 0.787 nM | 83.23%
CCc1cc(Nc2ncc(Br)c(Nc3ccc4c(c3P(C)(C)=O)OCCO4)n2)c(OC)cc1N1CCC(N2CCN(C(=O)[C@@H]3CCN(c4cc(F)c([C@H]5CCC(=O)NC5=O)c(F)c4)C3)CC2)CC1 [Example 686, (R)-3-(4-((R)-3-(4-(1-(4-((5-bromo-4-((5-(dimethylphosphoryl)-2,3-dihydrobenzo[b][1,4]dioxin-6-yl)amino)pyrimidin-2-yl)amino)-2-ethyl-5-methoxyphenyl)piperidin-4-yl)piperazine-1-carbonyl)pyrrolidin-1-yl)-2,6-difluorophenyl)piperidine-2,6-dione] | 4.89 nM | 96.6% | 1.76 nM | 88.73%
COc1cc(N2CCC(N3CC(C(=O)N4CCC(c5cc(F)c(C6CCC(=O)NC6=O)c(F)c5)CC4)C3)CC2)c(C)cc1Nc1ncc(Br)c(Nc2ccc3nc(C)ccc3c2P(C)(C)=O)n1 (centres unmarked) [Example 687, 3-(4-(1-(1-(1-(4-((5-bromo-4-((5-(dimethylphosphoryl)-2-methylquinolin-6-yl)amino)pyrimidin-2-yl)amino)-5-methoxy-2-methylphenyl)piperidin-4-yl)azetidine-3-carbonyl)piperidin-4-yl)-2,6-difluorophenyl)piperidine-2,6-dione] | 14.8 nM | 93.3% | 1.38 nM | 68.75%
CCc1cc(Nc2ncc(C(F)(F)F)c(Nc3ccc4nc(C)ccc4c3P(C)(C)=O)n2)c(OC)cc1N1CCC(N2CCN(CCc3cc(F)c(C4CCC(=O)NC4=O)c(F)c3)CC2)CC1 (centres unmarked) [Example 689, 3-(4-(2-(4-(1-(4-((4-((5-(dimethylphosphoryl)-2-methylquinolin-6-yl)amino)-5-(trifluoromethyl)pyrimidin-2-yl)amino)-2-ethyl-5-methoxyphenyl)piperidin-4-yl)piperazin-1-yl)ethyl)-2,6-difluorophenyl)piperidine-2,6-dione] | 15.4 nM | 85.1% | 3.03 nM | 72.37%
CCc1cc(Nc2ncc(Br)c(Nc3ccc4nc(COC)ccc4c3P(C)(C)=O)n2)c(OC)cc1N1CCC(N2CCN(CCc3cc(F)c(C4CCC(=O)NC4=O)c(F)c3)CC2)CC1 (centres unmarked) [Example 690, 3-(4-(2-(4-(1-(4-((5-bromo-4-((5-(dimethylphosphoryl)-2-(methoxymethyl)quinolin-6-yl)amino)pyrimidin-2-yl)amino)-2-ethyl-5-methoxyphenyl)piperidin-4-yl)piperazin-1-yl)ethyl)-2,6-difluorophenyl)piperidine-2,6-dione] | 6.66 nM | 90.6% | 0.689 nM | 77.81%
CCc1ccc2c(P(C)(C)=O)c(Nc3nc(Nc4cc(CC)c(N5CCC(N6CCN(C[C@H]7C[C@H](N(C)c8cc(F)c(C9CCC(=O)NC9=O)c(F)c8)C7)CC6)CC5)cc4OC)ncc3Br)ccc2n1 (some centres unmarked) [Example 691, 3-(4-(((1r,3r)-3-((4-(1-(4-((5-bromo-4-((5-(dimethylphosphoryl)-2-ethylquinolin-6-yl)amino)pyrimidin-2-yl)amino)-2-ethyl-5-methoxyphenyl)piperidin-4-yl)piperazin-1-yl)methyl)cyclobutyl)(methyl)amino)-2,6-difluorophenyl)piperidine-2,6-dione] | 24.6 nM | 93.4% | 3.3 nM | 71.66%
